Reference: paper PMC4579270, “Identification and Characterization of an Irreversible Inhibitor of CDK2” (Chemistry & Biology, 2015)
Read-outs that look alike come from different tables or passages of the source.

Tests used:
[1] = system: human MCF-7 breast carcinoma cells; parameters: method as in Davies et al., 2002; details: ref Davies et al., 2002; cited from earlier work
[2] = system: phosphorylation of Rb at Thr821 in SKUT-1B cells; assay: Inhibition of Rb phosphorylation in cells (western blot); assay type: cell-based; details: for inhibition at 50 µM: Homo sapiens, Skut1B, 1 hr exposure
Procedure: The cellular potency of NU6300 was examined by measuring the inhibition of Rb phosphorylation following exposure of SKUT-1B cells to the inhibitor for 1 hr. Pre-incubation with 50 μM NU6300 inhibited phosphorylation of Rb at […], a known CDK2 phosphorylation site, by 43%. […] This difference just reached statistical significance (p = 0.04). […] Representative of three different experiments. […] Protein expression levels of phospho-Rb ([…]) were normalized to the levels of total Rb in respective samples using densitometry. Relative protein expression levels are presented as percentage of inhibition of phosphorylation of Rb ([…]) compared with the control cells for each time point. Error bars represent the mean value and SD from three independent experiments. Statistical analysis was performed using the unpaired Student's t test, one-tailed. Western blot analysis was carried out as described previously ([Thomas et al., 2011]) using rabbit anti-[…] phospho-Rb antibody (Invitrogen) or mouse antihuman Rb antibody (BD Pharmingen) to detect phosphorylated and total retinoblastoma protein, respectively. Sample preparation is described in Supplemental Experimental Procedures. page 14: formate) before cryo-coolling. Data processing was carried out using programs of the CCP4 suite (CCP4, 1994). The structure of NU6300 bound to CDK2/cyclin A was solved by molecular replacement using Phaser (McCoy et al., 2007), using as the search model a high-resolution structure of a recruitment peptide bound to CDK2/cyclin A ((Cheng et al., 2006) PDB code 2CCH). A single clear solution was found with an inhibitor bound to each of the two copies of the binary complex in the asymmetric unit. This solution was then subjected to rigid body refinement in REFMAC (Murshudov et al., 1997), to reveal unambiguous electron density in the CDK2 ATP-binding site, consistent with the expected shape of the inhibitor. A model of NU6300 was created using Coot (Emsley et al., 2010). The inhibitor atoms were kept in all subsequent models during refinement carried out by additional rounds of manual rebuilding in Coot and restrained refinement in REFMAC5, including TLS refinement. Towards the end of refinement, waters were added using the Coot water picking utility and manually verified. Western blotting SKUT-1B cells (ATCC, Manassas, USA) were grown in MEM medium supplemented with non-essential amino acids, L-Glutamine, sodium pyruvate and 10% (v/v) foetal calf serum (Sigma, UK). […] Cells were harvested at different time points after the washout and lysed by adding PhosphoSafe extraction reagent (Merck, UK) containing protease inhibitor cocktail (Roche, UK) at the manufacturer's recommended dilution. The harvested cell suspension was placed in an eppendorf tube on ice, centrifuged at 13,000x g for 5 min, and the supernatant (cell lysate) removed for analysis. Subsequent western blot analysis was carried out as described in (Thomas et al., 2011) using rabbit anti-[…] phospho-Rb antibody (Invitrogen, Paisley, UK Cat No. 44-[…]) or mouse anti-human Rb antibody (BD Pharmingen, Oxford, UK Cat No. 554136) to detect phosphorylated and total retinoblastoma protein, respectively.

NS(=O)(=O)c1ccc(Nc2nc(OCC3CCCCC3)c3nc[nH]c3n2)cc1 [NU6102, 4-((6-(Cyclohexylmethoxy)-9H-purin-2-yl)amino)benzenesulfonamide]
GI50 [1]: 8 µM | inhibitory activity lost after washout ([2]; 50 μM, 1 hr of washout): just over half | inhibition at 50 µM ([2]; before washout, read-out: inhibition of phosphorylation of Rb at Thr821): 85% | inhibition at 50 µM ([2]; then 1-hr washout in drug-free media, read-out: inhibition of phosphorylation of Rb at Thr821 after washout): 40%
